The test concerns CD8+ T cells. Nature of the test: In vitro immunogenicity of HLA-A*02 peptides (CD8+ T-cell priming with aAPCs, multimer staining). The format is cell-based, human. From the text: In order to obtain information regarding the immunogenicity of the TUMAPs of the present invention, the inventors performed investigations using an in vitro T-cell priming assay based on repeated stimulations of CD8+ T cells with artificial antigen presenting cells (aAPCs) loaded with peptide/MHC complexes and anti-CD28 antibody.
In order to perform in vitro stimulations by artificial antigen presenting cells loaded with peptide-MHC complex (pMHC) and anti-CD28 antibody, the inventors first isolated CD8+ T cells from fresh HLA-A*02 leukapheresis products via positive selection using CD8 microbeads (Miltenyi Biotec, Bergisch-Gladbach, Germany) of healthy donors obtained from the University clinics Mannheim, Germany, after informed consent.
PBMCs and isolated CD8+ lymphocytes were incubated in T-cell medium (TCM) until use consisting of RPMI-Glutamax (Invitrogen, Karlsruhe, Germany) supplemented with 10% heat inactivated human AB serum (PAN-Biotech, Aidenbach, Germany), 100 U/ml Penicillin/100 μg/ml Streptomycin (Cambrex, Cologne, Germany), 1 mM sodium pyruvate (CC Pro, Oberdorla, Germany), 20 μg/ml Gentamycin (Cambrex). 2.5 ng/ml IL-7 (PromoCell, Heidelberg, Germany) and 10 U/ml IL-2 (Novartis Pharma, Nurnberg, Germany) were also added to the TCM at this step.
Generation of pMHC/anti-CD28 coated beads, T-cell stimulations and readout was performed in a highly defined in vitro system using four different pMHC molecules per stimulation condition and 8 different pMHC molecules per readout condition.
The purified co-stimulatory mouse IgG2a anti human CD28 Ab 9.3 (Jung et al., 1987) was chemically biotinylated using Sulfo-N-hydroxysuccinimidobiotin as recommended by the manufacturer (Perbio, Bonn, Germany). Beads used were 5.6 μm diameter streptavidin coated polystyrene particles (Bangs Laboratories, Illinois, USA).
800.000 beads/200 μl were coated in 96-well plates in the presence of 4×12.5 ng different biotin-pMHC, washed and 600 ng biotin anti-CD28 were added subsequently in a volume of 200 μl. Stimulations were initiated in 96-well plates by co-incubating 1×10^6 CD8+ T cells with 2×10^5 washed coated beads in 200 μl TCM supplemented with 5 ng/ml IL-12 (PromoCell) for 3 days at 37° C. Half of the medium was then exchanged by fresh TCM supplemented with 80 U/ml IL-2 and incubating was continued for 4 days at 37° C. This stimulation cycle was performed for a total of three times. For the pMHC multimer readout using 8 different pMHC molecules per condition, a two-dimensional combinatorial coding approach was used as previously described (Andersen et al., 2012) with minor modifications encompassing coupling to 5 different fluorochromes. Finally, multimeric analyses were performed by staining the cells with Live/dead near IR dye (Invitrogen, Karlsruhe, Germany), CD8-FITC antibody clone SK1 (BD, Heidelberg, Germany) and fluorescent pMHC multimers. For analysis, a BD LSRII SORP cytometer equipped with appropriate lasers and filters was used. Peptide specific cells were calculated as percentage of total CD8+ cells. Evaluation of multimeric analysis was done using the FlowJo software (Tree Star, Oregon, USA). In vitro priming of specific multimer+CD8+ lymphocytes was detected by comparing to negative control stimulations.

“KIF26B-001 (TVAEVIQSV; listed as Homo sapiens)”: the “in vitro immunogenicity: donors” value was “+ (<20% = +)” and the “in vitro immunogenicity: wells” value is listed as “+ (<20% = +)”.

As to “TGFBI-001 (ALFVRLLALA; listed as Homo sapiens)”, the “in vitro immunogenicity: donors” value was “++++ (>= 70% = ++++)” and the “in vitro immunogenicity: wells” value is “++ (20%-49% = ++)”.

Consider BNC1-001 (VLFPNLKTV), for which the “in vitro immunogenicity: donors” value was “++++ (>= 70% = ++++)” and the “in vitro immunogenicity: wells” value is given as “+ (<20% = +)”.

On to “TACC3-001 (KLVEFDFLGA; listed as Homo sapiens)”, for which the “in vitro immunogenicity: donors” value is “+++ (50%-69% = +++)” and the “in vitro immunogenicity: wells” value is reported as “+ (<20% = +)”.

In the case of “ILQDRLNQV (listed as Homo sapiens) [SEQ ID No. 152]”, the “in vitro immunogenicity: donors” value is on record as “+++ (50%-69% = +++)” and the “in vitro immunogenicity: wells” value is listed as “+ (<20% = +)”.

As for “COL6A3-002 (FLLDGSANV; listed as Homo sapiens)”, the “in vitro immunogenicity: donors” value is reported as “++++ (>= 70% = ++++)” and the “in vitro immunogenicity: wells” value was “++ (20%-49% = ++)”.

Take “VLLPVEVATHYL (listed as Homo sapiens) [SEQ ID No. 142]”: the “in vitro immunogenicity: donors” value is listed as “++ (20%-49% = ++)” and the “in vitro immunogenicity: wells” value is recorded as “+ (<20% = +)”.

“ALVDHTPYL (listed as Homo sapiens) [SEQ ID No. 136]”: the “in vitro immunogenicity: donors” value is listed as “++++ (>= 70% = ++++)” and the “in vitro immunogenicity: wells” value was “+ (<20% = +)”.

Consider “LIFDLGGGTFDV (listed as Homo sapiens) [SEQ ID No. 16]”, for which the “in vitro immunogenicity: donors” value is reported as “+++ (50%-69% = +++)” and the “in vitro immunogenicity: wells” value is “+ (<20% = +)”.

Turning to “ADAM8-001 (KLLTEVHAA; listed as Homo sapiens)”, the “in vitro immunogenicity: donors” value is “++++ (>= 70% = ++++)” and the “in vitro immunogenicity: wells” value is recorded as “+ (<20% = +)”.

For the substance “CCNB2-001 (ILVDWLVQV; listed as Homo sapiens)”, the “in vitro immunogenicity: donors” value is given as “++++ (>= 70% = ++++)” and the “in vitro immunogenicity: wells” value is reported as “++ (20%-49% = ++)”.

For the substance “KRT-006 (TLLQEQGTKTV; listed as Homo sapiens)”, the “in vitro immunogenicity: donors” value is listed as “++ (20%-49% = ++)” and the “in vitro immunogenicity: wells” value is on record as “+ (<20% = +)”.

Take “PLT-001 (ALFGALFLA; listed as Homo sapiens)”: the “in vitro immunogenicity: donors” value was “++ (20%-49% = ++)” and the “in vitro immunogenicity: wells” value is listed as “+ (<20% = +)”.

On to “COL12A1-002 (FLVDGSWSV; listed as Homo sapiens)”, for which the “in vitro immunogenicity: donors” value is on record as “++ (20%-49% = ++)” and the “in vitro immunogenicity: wells” value is listed as “+ (<20% = +)”.

With “KIQEMQHFL (listed as Homo sapiens) [SEQ ID No. 116]”, the “in vitro immunogenicity: donors” value is recorded as “++++ (>= 70% = ++++)” and the “in vitro immunogenicity: wells” value was “+ (<20% = +)”.

On to “FLIPYAIML (listed as Homo sapiens) [SEQ ID No. 2]”, for which the “in vitro immunogenicity: donors” value is given as “++++ (>= 70% = ++++)” and the “in vitro immunogenicity: wells” value is “+ (<20% = +)”.

On to “PRPF3-001 (AMGIAPPKV; listed as Homo sapiens)”, for which the “in vitro immunogenicity: donors” value is given as “++++ (>= 70% = ++++)” and the “in vitro immunogenicity: wells” value is “++++ (>= 70% = ++++)”.

As to “WNT5A-001 (AMSSKFFLV; listed as Homo sapiens)”, the “in vitro immunogenicity: donors” value is listed as “++++ (>= 70% = ++++)” and the “in vitro immunogenicity: wells” value was “++ (20%-49% = ++)”.

As to “TLLDFINAV (listed as Homo sapiens) [SEQ ID No. 108]”, the “in vitro immunogenicity: donors” value is recorded as “+++ (50%-69% = +++)” and the “in vitro immunogenicity: wells” value is “+ (<20% = +)”.

As for “CERC-001 (KLSWDLIYL; listed as Homo sapiens)”, the “in vitro immunogenicity: donors” value is “++++ (>= 70% = ++++)” and the “in vitro immunogenicity: wells” value is “+++ (50%-69% = +++)”.

Values taken from patent US10526389B2, “Peptides and combinations of peptides for use in immunotherapy against lung cancer, including NSCLC and other cancers” (Immatics Biotechnologies GmbH, priority 2015, dated 2020).
